Literature values as cited in article PMC7756498 (Chemistry (Weinheim an Der Bergstrasse, Germany), 2020).

Tested on: P. aeruginosa
Details: ref [18]

sansanmycin B [sansanmycin B 13]
MIC (anti-Pseudomonas activity): 4 to 16 µg/mL
